“Also recorded” adds a separate entry of the source.
Tests used:
[1] = tested on: adult Long-Evans hooded rats, binocular visual cortex contralateral to the deprived eye; test: Ocular dominance plasticity after one week of monocular deprivation (MD) in adult rats, C/I VEP ratio; type: in vivo, rat; conditions: fluoxetine alone, without deprivation of one eye
Experimental: Adult Long-Evans hooded rats were used in this study. Animals were group-housed under standard conditions with food and water ad libitum in plexiglass cages (40×30×20 cm) and kept in a 12:12 light/dark cycle.
Adult animals, under treatment, were anesthetized with avertin (1 ml kg^−1) and mounted on a stereotaxic apparatus to be monocularly deprived. Eyelid closure was inspected daily until complete cicatrization; subjects with even minimal spontaneous re-opening were excluded. Great care was taken during the first days after MD to prevent inflammation or infection of the deprived eye through topical application of antibiotic and cortisone.
Additional doses of urethane were used to keep the anesthesia level stable throughout the experiment. Body temperature was continuously monitored and maintained at ˜37° C. by a thermostated electric blanket during the experiment. An ECG was continuously monitored. A hole was drilled in the skull, corresponding to the binocular portion of the primary visual cortex (binocular area OclB) contralateral to the deprived eye. […] We measured visual acuity through both eyes using visual evoked potentials (VEPs). […] Transient VEPs in response to abrupt contrast reversal (0.5 Hz) were evaluated in the time domain by measuring the peak-to-baseline amplitude and peak latency of the major negative component. […]

[2] = tested on: adult rat visual cortex slices; test: LTP recordings in visual cortex slices after theta-burst stimulation from the white matter (WM-LTP); conditions: slices from fluoxetine treated adult rats (P100), measured 20-30 min following TBS
Description: Slices (0.35 mm thick) of visual cortex were obtained using a Leica (Nussloch, Germany) vibratome. […] The recording solution was composed as the cutting solution with the following differences (in mM): 130 NaCl, 5.0 dextrose, 1.0 MgCl2, 2.0 CaCl2, 0.01 glycine, no kynurenate, no sucrose. Electrical stimulation (100 μsec duration) was delivered with a bipolar concentric stimulating electrode (FHC, St. Bowdoinham, Me.) placed at the border of the white matter and layer VI. Field potentials in layers II-III were recorded by a micropipette (1-3MΩ) filled with NaCl (3 M). Baseline responses were obtained every 30 sec with a stimulation intensity that yielded a half-maximal response. After achievement of a 15 min stable baseline (field potential amplitude within 15% of change and with no evident increasing or decreasing trends), θ burst stimulation (TBS) was delivered. Postsynaptic field potentials after TBS were recorded every 30 sec during 30 min.

[3] = humans; cited from earlier work
BDNF = BDNF protein expression by ELISA after repeated fluoxetine administration; type: in vivo, rat; conditions: adult rats
Experimental: (§1) This method of administration yields steady-state plasma concentrations of 356±99 ng/ml in rats, which is within the recommended plasma concentration for the treatment of depression in humans (50-450 ng/ml).
Proteins from fresh visual cortex and hippocampus were initially extracted, respectively, using lysis buffer (1% Triton X-100, 10% Glycerol, 20 mM TrisHCl pH 7.5, 150 mM NaCl, 10 mM EDTA, 0.1 mM Na3VO4, 1¼ g/ml Leupeptin, 1¼ g/ml Aprotinin, 1 mM PMSF). The total concentration of samples was quantified with the protein assay kit (Bio-Rad, Hercules, Calif.) using a BSA based standard curve. Afterwards, BDNF expression was assessed loading 100 μg of total proteins in triplicate in a standard ELISA plate together with a standard curve and processed as indicated in the manufacturer protocol (BDNF, Promega).

adult amblyopic rats = test: Behavioral assessment of visual acuity (visual water task) in adult amblyopic rats; type: in vivo, rat; conditions: reverse suture, 4-week fluoxetine, n=5
Experimental: as §1
(§2) To perform analysis of long-term MD, rats were anesthetized with avertin (1 ml kg^−1) and monocularly deprived through eyelid suturing at P21. Eyelid closure was inspected daily until complete cicatrization; subjects with even minimal spontaneous re-opening were excluded. […] The long-term deprived eye was re-opened using thin scissors, while the other eye was sutured shut. Great care was taken during the first days after RS to prevent inflammation or infection in the previously deprived eye through topical application of antibiotic and cortisone.
Then, after RS, during the third week of treatment (P90), we started measuring visual acuity of the long term deprived eye. […] To measure visual acuity, we used the visual water task (Prusky et al., 2000) which trains animals to first distinguish a low (0.1 cycles per degree (c deg^−1)) spatial frequency vertical grating from grey, and then tests the limit of this ability at higher spatial frequencies. The apparatus consists of a trapezoidal-shaped pool with two panels placed side by side at one end. […] A trial is recorded as incorrect if an animal enters the arm without the platform. […]

[4] = tested on: adult amblyopic rats, visual cortex contralateral to the long-term deprived eye; test: VEP recording of visual acuity and binocularity in adult amblyopic rats (long-term MD from P21, reverse suture); type: in vivo, rat; conditions: long-term MD from P21, reverse suture last two weeks of 4-week fluoxetine, n=5, control 0.62±0.06, fellow eye 1.06±0.01
Experimental: as §1
as §2, with “Great care was taken during the first days after RS to prevent inflammation or infection in the previously deprived eye through topical application of antibiotic and cortisone.” left out
Additional doses of urethane were used to keep the anesthesia level stable throughout the experiment. Body temperature was continuously monitored and maintained at ˜37° C. by a thermostated electric blanket during the experiment. An ECG was continuously monitored. […] We measured visual acuity through both eyes using visual evoked potentials (VEPs). […] Transient VEPs in response to abrupt contrast reversal (0.5 Hz) were evaluated in the time domain by measuring the peak-to-baseline amplitude and peak latency of the major negative component. […] Binocularity (ocular dominance) was assessed calculating the contralateral to ipsilateral (C/I) VEP ratio, i.e. the ratio of VEP amplitudes recorded by stimulating the eye respectively contralateral and ipsilateral to the visual cortex where recording is performed.

[5] = tested on: extracellular GABA and glutamate in visual cortex; test: In vivo brain microdialysis in the visual cortex with HPLC of GABA and glutamate; set-up: species or system rat; conditions: adult rats, repeated fluoxetine
Experimental: After the end of repeated treatment with fluoxetine, the in vivo sampling of dialysates was performed inserting a microdialysis probe into the guide shaft previously implanted. A detailed description of the procedure followed is reported in (Hernandez et al., 1986). Briefly, the probe was made of concentric fused-silica polyimide covered capillary tube into a 26 gauge stainless steel tube with a 1 mm long tip of exposed cellulose membrane (6000 MW cut-off). It was connected to a dialysis system pumping an artificial CSF (142 mM NaCl, 3.9 mM KCl, 1.2 mM CaCl2, 1 mM MgCl2, 1.35 mM Na2HPO4, pH 7.4) at a flow rate of 1 μl min^−1. The probe protruded 1 mm from the tip of the guide shaft. Six hours after insertion of the probe (stabilization period), sampling was carried out.
After brain microdialysis, rats were sacrificed with an overdose of chloral hydrate and perfused intracardially as described above. Brains were post-fixed for two hours before being immersed in 30% sucrose in PBS. […]
Analysis of γ-aminobutyric acid (GABA) and glutamate (GLU) basal levels from microdialysates was performed using High Performance Liquid Chromatography (HPLC) coupled to a fluorimetric detection system. […] Homoserine was used as internal standard and amino-acid concentrations were calculated from a linear standard curve built upon known concentrations of injected amino acids. […]

[6] = tested on: adult rats, visual cortex contralateral to the deprived eye; test: Intracortical infusion of diazepam or vehicle during MD in fluoxetine treated rats, C/I VEP ratio; type: in vivo, rat; conditions: cortical diazepam 2 mg/ml during last week of chronic fluoxetine
Experimental: Additional doses of urethane were used to keep the anesthesia level stable throughout the experiment. Body temperature was continuously monitored and maintained at ˜37° C. by a thermostated electric blanket during the experiment. An ECG was continuously monitored. A hole was drilled in the skull, corresponding to the binocular portion of the primary visual cortex (binocular area OclB) contralateral to the deprived eye. After exposure of the brain surface, the dura was removed, and a micropipette (2 MΩ) filled with NaCl (3 M) was inserted into the cortex 5 mm from λ (intersection between sagittal- and lambdoid-sutures). Both eyes were fixed and kept open by means of adjustable metal rings surrounding the external portion of the eye bulb. We measured visual acuity through both eyes using visual evoked potentials (VEPs). During recording through one eye, the other was covered by a black adhesive tape. […] Transient VEPs in response to abrupt contrast reversal (0.5 Hz) were evaluated in the time domain by measuring the peak-to-baseline amplitude and peak latency of the major negative component. Visual stimuli were horizontal sinusoidal gratings of different spatial frequencies and contrast, generated by a VSG2/2 card running custom software and presented on a monitor (20×22 cm; luminance 15 cd m^−2) positioned 20 cm from the rat's eyes and centred on the previously determined receptive fields. […]

SMILES	Responsiveness of either eye to visual stimulation [1]	WM-LTP of layer II-III field potentials after theta-burst stimulation vs controls [2]	Recommended (therapeutic) plasma concentration for the treatment of depression [3]	BDNF protein expression in hippocampus vs controls (BDNF; t-test p<0.01 n=6)	BDNF protein expression in visual cortex vs controls (BDNF; t-test p<0.04 n=6)	Visual acuity of the formerly deprived eye (behavioral, visual water box task) (adult amblyopic rats)	Visual acuity of the formerly deprived eye (VEP) [4]	Extracellular glutamate (GLU) levels vs controls ([5]; data not shown)	Basal extracellular levels of GABA in visual cortex vs controls ([5]; n=5, p<0.02)	Effect on OD shift induced by MD in fluoxetine treated rats [6]
CNCCC(Oc1ccc(C(F)(F)F)cc1)c1ccccc1 (stereo not shown) [fluoxetine]	did not produce any changes	significantly enhanced; also recorded: fully restored	50 to 450 ng/mL	significantly higher; also recorded: similarly enhanced	significantly higher	0.88±0.02 c deg^−1	0.97±0.04 c deg^−1	No difference	significantly lower; also recorded: significant reduction	–
CN1C(=O)CN=C(c2ccccc2)c2cc(Cl)ccc21 [diazepam]	–	–	–	–	–	–	–	–	–	prevented the restoration of OD plasticity; also recorded: totally prevented
